# Where two headings read alike, the source gives them in different places.
# How the values were obtained:
# Type in all cases: cell-based
# A431 cells = assay: Cellular proliferation (Alamar Blue) assay, A431
# [1] = target: EGFR (A767_dupASV) expressing Ba/F3 stable cell line (Homo sapiens, UniProt P00533, DUP767-769, cells depend on it); assay: Cellular proliferation (Alamar Blue) assay, EGFR A767_dupASV Ba/F3; conditions: 72 hr, read-out: A767 IC50
# Method in brief: (§1)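 Steps: plate 15,000 Ba/F3 cells/well in RPMI/10% FBS; rest 16-18 h, 37 °C; add compound at final 10-0.0005 μM (3-fold series) or DMSO; incubate 72 hr; add Alamar Blue; read after 3 h.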
# [2] = target: HER2 (A775_G776insYVMA) expressing Ba/F3 stable cell line (Homo sapiens, UniProt P04626, DUP772-775, cells depend on it); assay: Cellular proliferation (Alamar Blue) assay, HER2 A775_G776insYVMA Ba/F3; conditions: 72 hr, read-out: YVMA IC50
# Method in brief: as §1
# [3] = target: EGFR(D770_N771insSVD) expressing Ba/F3 stable cell line (Homo sapiens, UniProt P00533, DUP768-770, cells depend on it); assay: Cellular proliferation (Alamar Blue) assay, EGFR D770_N771insSVD Ba/F3; conditions: 72 hr, read-out: D770 IC50
# Method in brief: as §1
# [4] = target: EGFR (H773insNPH) expressing Ba/F3 stable cell line (Homo sapiens, UniProt P00533, DUP771-773, cells depend on it); assay: Cellular proliferation (Alamar Blue) assay, EGFR H773insNPH Ba/F3; conditions: 72 hr, read-out: NPH IC50
# Method in brief: as §1
# [5] = Homo sapiens, A-431; A431 cells, 72 hr, Alamar Blue; read-out: A431 IC50
# Chain of HER2 (A775_G776insYVMA) expressing Ba/F3 stable cell line (P04626 with tags, fused parts or gaps DUP772-775): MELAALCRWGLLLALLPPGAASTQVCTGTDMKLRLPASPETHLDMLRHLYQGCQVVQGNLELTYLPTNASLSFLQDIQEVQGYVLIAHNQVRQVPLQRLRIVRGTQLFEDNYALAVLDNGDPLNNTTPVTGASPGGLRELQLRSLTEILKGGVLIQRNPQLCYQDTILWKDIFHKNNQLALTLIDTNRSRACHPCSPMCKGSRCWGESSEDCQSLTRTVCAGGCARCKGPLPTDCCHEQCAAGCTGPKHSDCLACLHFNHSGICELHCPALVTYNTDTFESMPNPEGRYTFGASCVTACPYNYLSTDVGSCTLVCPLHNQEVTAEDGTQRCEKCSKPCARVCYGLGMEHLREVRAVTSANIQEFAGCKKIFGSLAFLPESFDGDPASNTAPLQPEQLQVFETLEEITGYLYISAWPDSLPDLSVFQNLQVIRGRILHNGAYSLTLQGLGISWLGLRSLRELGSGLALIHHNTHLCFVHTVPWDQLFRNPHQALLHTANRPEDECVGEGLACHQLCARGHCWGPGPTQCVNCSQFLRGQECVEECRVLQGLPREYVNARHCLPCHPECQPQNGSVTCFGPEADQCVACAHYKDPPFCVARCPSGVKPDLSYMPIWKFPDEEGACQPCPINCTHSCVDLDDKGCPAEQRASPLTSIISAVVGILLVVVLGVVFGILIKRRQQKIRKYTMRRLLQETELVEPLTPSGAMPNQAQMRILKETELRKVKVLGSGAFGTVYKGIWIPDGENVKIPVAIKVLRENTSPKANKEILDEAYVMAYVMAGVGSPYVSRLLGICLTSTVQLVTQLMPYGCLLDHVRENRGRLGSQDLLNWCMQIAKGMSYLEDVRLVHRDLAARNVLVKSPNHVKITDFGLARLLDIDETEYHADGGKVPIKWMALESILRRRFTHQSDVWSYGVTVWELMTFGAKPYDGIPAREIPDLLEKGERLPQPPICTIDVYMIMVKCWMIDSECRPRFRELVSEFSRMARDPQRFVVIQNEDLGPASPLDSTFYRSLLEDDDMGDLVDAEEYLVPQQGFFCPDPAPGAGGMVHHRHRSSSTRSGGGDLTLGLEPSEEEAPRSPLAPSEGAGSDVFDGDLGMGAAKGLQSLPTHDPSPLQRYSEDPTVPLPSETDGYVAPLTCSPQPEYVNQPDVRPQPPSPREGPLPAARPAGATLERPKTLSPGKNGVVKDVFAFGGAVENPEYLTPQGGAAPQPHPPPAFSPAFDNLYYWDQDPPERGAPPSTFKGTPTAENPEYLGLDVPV
# Chain of EGFR (H773insNPH) expressing Ba/F3 stable cell line (P00533 with tags, fused parts or gaps DUP771-773): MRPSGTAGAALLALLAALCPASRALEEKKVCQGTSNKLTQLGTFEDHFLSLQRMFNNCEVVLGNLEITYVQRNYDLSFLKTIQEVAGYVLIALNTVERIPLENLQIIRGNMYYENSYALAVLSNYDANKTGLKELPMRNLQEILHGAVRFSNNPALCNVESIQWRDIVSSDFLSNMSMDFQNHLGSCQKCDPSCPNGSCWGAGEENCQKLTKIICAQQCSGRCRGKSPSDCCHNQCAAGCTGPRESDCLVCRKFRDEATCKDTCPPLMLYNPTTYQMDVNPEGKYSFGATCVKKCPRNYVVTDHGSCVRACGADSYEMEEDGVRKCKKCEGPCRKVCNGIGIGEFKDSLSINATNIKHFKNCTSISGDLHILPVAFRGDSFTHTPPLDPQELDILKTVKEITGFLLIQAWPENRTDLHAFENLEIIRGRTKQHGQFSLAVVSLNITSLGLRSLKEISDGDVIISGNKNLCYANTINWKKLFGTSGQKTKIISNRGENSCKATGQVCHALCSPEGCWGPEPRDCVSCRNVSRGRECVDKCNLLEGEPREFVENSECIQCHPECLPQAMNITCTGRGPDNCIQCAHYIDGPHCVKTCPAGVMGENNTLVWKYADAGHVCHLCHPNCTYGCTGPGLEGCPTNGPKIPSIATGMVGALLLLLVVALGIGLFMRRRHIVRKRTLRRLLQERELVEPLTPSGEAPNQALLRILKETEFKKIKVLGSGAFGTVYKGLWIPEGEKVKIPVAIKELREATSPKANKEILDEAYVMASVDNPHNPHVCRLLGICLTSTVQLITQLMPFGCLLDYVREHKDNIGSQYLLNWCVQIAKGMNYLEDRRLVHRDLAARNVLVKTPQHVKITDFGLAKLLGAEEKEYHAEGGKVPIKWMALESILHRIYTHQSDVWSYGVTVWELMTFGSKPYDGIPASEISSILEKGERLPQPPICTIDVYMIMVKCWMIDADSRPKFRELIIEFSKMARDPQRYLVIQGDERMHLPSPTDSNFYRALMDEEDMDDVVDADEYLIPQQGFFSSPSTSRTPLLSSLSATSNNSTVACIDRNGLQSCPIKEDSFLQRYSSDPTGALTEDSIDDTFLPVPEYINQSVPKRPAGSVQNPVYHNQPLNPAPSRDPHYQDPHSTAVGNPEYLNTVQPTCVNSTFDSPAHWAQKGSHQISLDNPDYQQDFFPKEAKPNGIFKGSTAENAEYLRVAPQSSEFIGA
# Chain of EGFR (A767_dupASV) expressing Ba/F3 stable cell line (P00533 with tags, fused parts or gaps DUP767-769): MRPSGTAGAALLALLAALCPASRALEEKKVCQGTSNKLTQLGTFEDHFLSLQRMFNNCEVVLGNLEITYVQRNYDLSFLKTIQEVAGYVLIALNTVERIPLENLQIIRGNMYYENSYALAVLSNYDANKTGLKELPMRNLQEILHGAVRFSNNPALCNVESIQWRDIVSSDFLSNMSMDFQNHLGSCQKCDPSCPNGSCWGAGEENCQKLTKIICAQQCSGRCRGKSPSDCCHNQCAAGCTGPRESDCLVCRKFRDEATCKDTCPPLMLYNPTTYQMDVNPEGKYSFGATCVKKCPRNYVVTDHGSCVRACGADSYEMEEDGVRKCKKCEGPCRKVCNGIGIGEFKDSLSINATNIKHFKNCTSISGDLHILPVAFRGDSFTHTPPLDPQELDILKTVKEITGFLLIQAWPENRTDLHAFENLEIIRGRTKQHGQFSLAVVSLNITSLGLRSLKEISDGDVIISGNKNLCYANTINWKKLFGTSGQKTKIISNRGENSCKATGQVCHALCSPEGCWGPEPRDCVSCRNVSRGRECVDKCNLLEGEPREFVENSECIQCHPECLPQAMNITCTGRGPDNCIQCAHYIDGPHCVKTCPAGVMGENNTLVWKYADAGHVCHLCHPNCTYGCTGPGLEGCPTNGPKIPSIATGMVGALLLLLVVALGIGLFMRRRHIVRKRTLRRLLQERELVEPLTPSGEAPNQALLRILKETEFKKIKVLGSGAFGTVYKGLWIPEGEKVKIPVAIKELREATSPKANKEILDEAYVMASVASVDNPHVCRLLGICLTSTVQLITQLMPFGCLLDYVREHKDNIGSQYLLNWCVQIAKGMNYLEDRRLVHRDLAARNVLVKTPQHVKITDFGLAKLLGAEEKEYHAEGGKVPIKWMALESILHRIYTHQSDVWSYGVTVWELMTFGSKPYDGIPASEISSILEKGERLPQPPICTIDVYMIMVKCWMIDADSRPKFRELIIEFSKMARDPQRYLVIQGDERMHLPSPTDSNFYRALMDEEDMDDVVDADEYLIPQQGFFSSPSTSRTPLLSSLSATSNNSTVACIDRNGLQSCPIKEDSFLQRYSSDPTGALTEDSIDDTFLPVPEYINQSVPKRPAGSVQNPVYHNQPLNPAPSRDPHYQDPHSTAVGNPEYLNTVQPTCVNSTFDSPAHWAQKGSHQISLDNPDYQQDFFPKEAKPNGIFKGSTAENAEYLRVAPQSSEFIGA
# Chain of EGFR(D770_N771insSVD) expressing Ba/F3 stable cell line (P00533 with tags, fused parts or gaps DUP768-770): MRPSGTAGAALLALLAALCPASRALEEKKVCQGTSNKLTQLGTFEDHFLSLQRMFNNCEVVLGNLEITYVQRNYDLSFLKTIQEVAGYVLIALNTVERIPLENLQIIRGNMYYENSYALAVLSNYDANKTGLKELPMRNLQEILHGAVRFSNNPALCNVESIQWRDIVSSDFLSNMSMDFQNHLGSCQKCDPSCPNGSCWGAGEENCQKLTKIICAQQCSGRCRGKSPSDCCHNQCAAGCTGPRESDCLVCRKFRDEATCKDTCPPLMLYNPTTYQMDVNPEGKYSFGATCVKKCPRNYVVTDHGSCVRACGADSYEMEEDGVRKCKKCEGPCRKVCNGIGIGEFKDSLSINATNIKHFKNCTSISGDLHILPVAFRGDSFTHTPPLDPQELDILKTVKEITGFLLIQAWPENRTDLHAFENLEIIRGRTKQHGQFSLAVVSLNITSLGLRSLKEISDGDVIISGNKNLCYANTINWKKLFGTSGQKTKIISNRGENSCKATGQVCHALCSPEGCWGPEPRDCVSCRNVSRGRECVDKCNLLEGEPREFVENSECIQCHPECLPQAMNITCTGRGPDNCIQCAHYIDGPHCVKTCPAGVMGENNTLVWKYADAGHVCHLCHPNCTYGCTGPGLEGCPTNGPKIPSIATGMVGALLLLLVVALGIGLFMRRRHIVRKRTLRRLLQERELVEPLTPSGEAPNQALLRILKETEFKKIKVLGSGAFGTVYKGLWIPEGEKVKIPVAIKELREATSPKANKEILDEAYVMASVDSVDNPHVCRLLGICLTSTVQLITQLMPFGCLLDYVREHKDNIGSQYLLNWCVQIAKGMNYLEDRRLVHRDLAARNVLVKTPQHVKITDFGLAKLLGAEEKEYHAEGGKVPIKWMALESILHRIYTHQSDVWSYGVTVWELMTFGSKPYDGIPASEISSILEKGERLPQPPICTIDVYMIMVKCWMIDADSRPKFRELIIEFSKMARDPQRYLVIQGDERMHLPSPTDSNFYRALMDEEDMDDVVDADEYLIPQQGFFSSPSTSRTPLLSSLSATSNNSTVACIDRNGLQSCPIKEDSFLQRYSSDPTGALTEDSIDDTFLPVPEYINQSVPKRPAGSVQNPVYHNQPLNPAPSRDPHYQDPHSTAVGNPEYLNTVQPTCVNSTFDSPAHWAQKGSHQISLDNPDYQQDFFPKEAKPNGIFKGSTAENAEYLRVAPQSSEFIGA
Compound,"IC50 (A431 cells; Homo sapiens, A-431; A431 cells, Alamar Blue, 72 hr; read-out: A431 IC50) [nM]",GI50 [1] [nM],GI50 [2] [nM],GI50 [3] [nM],GI50 [4] [nM],IC50 (A431 cells; [5]) [nM],"IC50 (A431 cells; A431 cells, 72 hr, Alamar Blue; read-out: A431 IC50) [nM]"
"C=CC(=O)Nc1cncc(Nc2nc(Nc3cnn(C)c3)ncc2-c2ccc(C(F)(F)F)cc2)c1 [Compound 195, N-(5-((2-((1-methyl-1H-pyrazol-4-yl)amino)-5-(4-(trifluoromethyl)phenyl)pyrimidin-4-yl)amino)pyridin-3-yl)acrylamide]",524,135,258,57,180,,
"C=CC(=O)Nc1ccc(F)c(Nc2nc(Nc3cnn(CCN(C)C)c3)ncc2-c2ccc(Br)cc2)c1 [Compound 203, N-(3-((5-(4-bromophenyl)-2-((1-(2-(dimethylamino)ethyl)-1H-pyrazol-4-yl)amino)pyrimidin-4-yl)amino)-4-fluorophenyl)acrylamide]",,100,110,69,107,51,
"C=CC(=O)Nc1ccc(F)c(Nc2nc(Nc3cn(CCN(C)C)nc3Cl)ncc2-c2ccc(C(F)(F)F)cc2)c1 [Compound 221, N-(3-((2-((3-chloro-1-(2-(dimethylamino)ethyl)-1H-pyrazol-4-yl)amino)-5-(4-(trifluoromethyl)phenyl)pyrimidin-4-yl)amino)-4-fluorophenyl)acrylamide]",,297,298,123,225,68,
"C=CC(=O)Nc1ccc(F)c(Nc2nc(Nc3cnn(C)c3)ncc2-c2cncs2)c1 [Compound 230, N-(4-fluoro-3-((2-((1-methyl-1H-pyrazol-4-yl)amino)-5-(thiazol-5-yl)pyrimidin-4-yl)amino)phenyl)acrylamide]",,63,54,63,41,109,
"C=CC(=O)Nc1cccc(Oc2nc(Nc3cn(C)nc3Cl)ncc2-c2ccc(C(F)(F)F)cc2)c1 [Compound 233, N-[3-({2-[(3-chloro-1-methyl-1H-pyrazol-4-yl)amino]-5-[4-(trifluoromethyl)phenyl]pyrimidin-4-yl}oxy)phenyl] prop-2-enamide]",,428,537,187,385,262,
"[2H]C([2H])([2H])n1cc(Nc2ncc(-c3ccc(C(F)(F)F)cc3)c(Nc3cc(NC(=O)C=C)ccc3F)n2)cn1 [Compound 242, N-{4-fluoro-3-[(2-{[1-(^2H3)methyl-1H-pyrazol-4-yl]amino}-5-[4-(trifluoromethyl)phenyl]pyrimidin-4-yl)amino]phenyl}prop-2-enamide]",,101,133,98,101,129,
"C=CC(=O)Nc1ccc(F)c(Nc2nc(Nc3cnn(C)c3)ncc2-c2ccc(C(F)(F)F)cc2)c1 [Compound 243, N-(4-fluoro-3-((2-((1-(methyl-^13C-d3)-1H-pyrazol-4-yl)amino)-5-(4-(trifluoromethyl)phenyl)pyrimidin-4-yl)amino)phenyl)acrylamide]",,135,237,88,121,,2600
"[2H]C([2H])=CC(=O)Nc1ccc(F)c(Nc2nc(Nc3cnn(C)c3)ncc2-c2ccc(C(F)(F)F)cc2)c1 [Compound 247, N-[4-fluoro-3-({2-[(1-methyl-1H-pyrazol-4-yl)amino]-5-[4-(trifluoromethyl)phenyl]pyrimidin-4-yl}amino)phenyl] (3,3-2H2) prop-2-enamide]",,123,270,86,144,3000,
"[2H]C([2H])=CC(=O)Nc1ccc(F)c(Nc2nc(Nc3cnn(C([2H])([2H])[2H])c3)ncc2-c2ccc(C(F)(F)F)cc2)c1 [Compound 248, N-(4-fluoro-3-((2-((1-(methyl-d3)-1H-pyrazol-4-yl)amino)-5-(4-(trifluoromethyl)phenyl)pyrimidin-4-yl)amino)phenyl)acrylamide-3,3-d2]",,143,250,109,43,222,

# Source: US12686673B2 (Blueprint Medicines Corporation, priority 2020, dated 2026)
